Results: patent publication US20060039879A1, “Use of particular polyols for preventing the hair from breaking, composition comprising them and cosmetic hair treatment process” (L'OREAL, priority 2004, published 2006)

Tests used:
[1] = Level of premature breakage of hairs in a tensile test (Zwick tensile testing machine); settings: 5% by weight compound in water; 30 natural African hairs immersed 3 days at 40° C., no final rinsing; hairs 30 mm, drawn at 10 mm/minute; untreated control R = 0.27
Description: The hair used for the following tests was left in a glove box at 25° C. and 45% relative humidity for about 24 hours.
A composition was prepared by mixing together 5% by weight of the compound of Example 1 and 95% by weight of water relative to the total weight of the composition.
30 natural African hairs were then treated with this composition: the hairs were immersed for 3 days at 40° C., without final rinsing, and their level of premature breakage was then compared with that of a batch of untreated natural control hairs.
Mechanical tests were performed using a Zwick tensile testing machine on the hairs 30 mm long. The hairs were drawn at a speed of 10 mm/minute.
The level of premature breakage of the treated African hair, on the one hand, and of the untreated African hair, on the other hand, was evaluated as follows: R=1—(number of hairs showing breakage under tension in the hardening zone/N) • N being the total number of hairs tested.

[2] = treatment with aqueous solutions of the humectant; breakage for small elongations; cited from earlier work

O=C(NCCO)NCCO [Example 1, N,N′-bis(2-hydroxyethyl)urea]
Level of premature breakage R, first test [1]: R = 0.17 | Level of premature breakage R, second test [1]: R = 0.10

OCC(O)CO [glycerol]
Improving the mechanical strength of Negroid hair and reducing its level of premature breakage [2]: effective
